Tests used:
Test in all cases: Test B pre-/postemergence plant response
Type in all cases: in vivo
[1] = test system: bermudagrass (Cynodon dactylon); settings: for Bermudagrass plant response rating: 0-100 scale
How it was run: (§1)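 Preemergence and postemergence (plants 2-18 cm, 1- to 4-leaf stage) applications used test chemicals in a non-phytotoxic solvent with surfactant. Plants were held in a greenhouse 13 to 15 days, then rated visually against controls on a 0-100 scale (0 no effect, 100 complete control).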

[2] = test system: blackgrass (Alopecurus myosuroides); settings: for Blackgrass plant response rating: 0-100 scale
How it was run: as §1

[3] = test system: catchweed bedstraw (Galium aparine); settings: Preemergence
How it was run: as §1

[4] = test system: cocklebur (Xanthium strumarium)
How it was run: as §1

corn (Zea mays) = test system: corn (Zea mays)
How it was run: as §1

[5] = test system: downy bromegrass (Bromus tectorum)
How it was run: as §1

kochia (Kochia scoparia) = settings: for Kochia plant response rating: postemergence, 0-100 scale
How it was run: as §1

[6] = test system: lambsquarters (Chenopodium album); settings: for Lambsquarters plant response rating: postemergence, 0-100 scale
How it was run: as §1

[7] = test system: morningglory (Ipomoea coccinea); settings: for Morningglory plant response rating: postemergence, 0-100 scale
How it was run: as §1

soybean (Glycine max) = settings: for Soybean plant response rating: postemergence, 0-100 scale
How it was run: as §1

[8] = test system: surinam grass (Brachiaria decumbens); settings: for Surinam Grass plant response rating: postemergence, 0-100 scale
How it was run: as §1

[9] = test system: wheat (Triticum aestivum); settings: for Wheat plant response rating: postemergence, 0-100 scale
How it was run: as §1

[10] = test system: yellow nutsedge (Cyperus esculentus); settings: for Nutsedge, Yellow plant response rating: postemergence, 0-100 scale
How it was run: as §1

[11] = Preemergence, 31 g ai/ha, 0 to 100 scale, 0 no effect, 100 complete control
[12] = Preemergence, 62 g ai/ha, scale 0 to 100
[13] = Preemergence, 125 g ai/ha, scale 0 to 100
[14] = Preemergence, 250 g ai/ha, scale 0 to 100
[15] = Postemergence, 16 g ai/ha, scale 0 to 100
[16] = Postemergence, 31 g ai/ha, scale 0 to 100
[17] = Postemergence, 62 g ai/ha, scale 0 to 100, 0 no effect, 100 complete control
[18] = 8 g ai/ha, postemergence, 0-100 scale
[19] = Postemergence, 31 g ai/ha, scale 0 to 100, 0 no effect, 100 complete control
[20] = Postemergence, 62 g ai/ha, scale 0 to 100
[21] = Postemergence, 125 g ai/ha, scale 0 to 100
[22] = Postemergence, 250 g ai/ha, scale 0 to 100

Cc1cc(-c2ccc(C(F)(F)F)cc2)nn1-c1c(OC(=O)C(C)(C)C)cnn(C)c1=O [Compound 2]
Bermudagrass plant response rating ([1]; 250 g ai/ha, preemergence): 100
Plant response rating, Bermudagrass [1, 11]: 100
Plant response rating, Bermudagrass [1, 12]: 100
Plant response rating, Bermudagrass [1, 13]: 100
Blackgrass plant response rating ([2]; 250 g ai/ha, preemergence): 100
Plant response rating, Blackgrass [2, 11]: 60
Plant response rating, Blackgrass [2, 12]: 80
Plant response rating, Blackgrass [2, 13]: 100
Plant response rating, Galium ([3]; 31 g ai/ha, 0 to 100 scale, 0 no effect, 100 complete control): 100
Plant response rating, Galium ([3]; 62 g ai/ha, scale 0 to 100): 100
Plant response rating, Galium ([3]; 250 g ai/ha, scale 0 to 100): 100
Plant response rating, Cocklebur [4, 11]: 0
Plant response rating, Cocklebur [4, 12]: 0
Plant response rating, Cocklebur [4, 13]: 0
Plant response rating, Cocklebur [4, 14]: 0
Plant response rating, Corn (corn (Zea mays); [11]): 50
Plant response rating, Corn (corn (Zea mays); [12]): 90
Plant response rating, Corn (corn (Zea mays); [13]): 95
Plant response rating, Corn (corn (Zea mays); [14]): 95
Plant response rating, Bromegrass, Downy [5, 11]: 0
Plant response rating, Bromegrass, Downy [5, 12]: 20
Plant response rating, Bromegrass, Downy [5, 13]: 70
Plant response rating, Kochia (kochia (Kochia scoparia); [11]): 0
Plant response rating, Kochia (kochia (Kochia scoparia); [12]): 0
Plant response rating, Kochia (kochia (Kochia scoparia); [13]): 0
Plant response rating, Kochia (kochia (Kochia scoparia); [14]): 50
Plant response rating, Lambsquarters [6, 11]: 0
Plant response rating, Lambsquarters [6, 12]: 0
Plant response rating, Lambsquarters [6, 13]: 0
Plant response rating, Lambsquarters [6, 14]: 30
Plant response rating, Morningglory [7, 11]: 0
Plant response rating, Morningglory [7, 12]: 0
Plant response rating, Morningglory [7, 13]: 0
Plant response rating, Morningglory [7, 14]: 0
Plant response rating, Soybean (soybean (Glycine max); [11]): 0
Plant response rating, Soybean (soybean (Glycine max); [12]): 0
Plant response rating, Soybean (soybean (Glycine max); [13]): 0
Plant response rating, Soybean (soybean (Glycine max); [14]): 0
Plant response rating, Surinam Grass [8, 11]: 85
Plant response rating, Surinam Grass [8, 12]: 85
Plant response rating, Surinam Grass [8, 14]: 100
Plant response rating, Wheat [9, 11]: 30
Plant response rating, Wheat [9, 12]: 50
Plant response rating, Wheat [9, 13]: 60
Plant response rating, Wheat [9, 14]: 75
Plant response rating, Nutsedge, Yellow [10, 11]: 0
Plant response rating, Nutsedge, Yellow [10, 12]: 0
Plant response rating, Nutsedge, Yellow [10, 13]: 0
Plant response rating, Nutsedge, Yellow [10, 14]: 0

COCc1cc(-c2ccc(Br)cc2)nn1-c1c(O)cnn(C)c1=O [Compound 68]
Bermudagrass plant response rating ([1]; 8 g ai/ha, postemergence): 0
Plant response rating, Bermudagrass [1, 15]: 0
Plant response rating, Bermudagrass [1, 16]: 0
Plant response rating, Bermudagrass [1, 17]: 0
Blackgrass plant response rating ([2]; 8 g ai/ha, postemergence): 0
Plant response rating, Blackgrass [2, 15]: 0
Plant response rating, Blackgrass [2, 16]: 50
Plant response rating, Blackgrass [2, 17]: 85
Cocklebur plant response rating [4, 18]: 0
Plant response rating, Cocklebur [4, 15]: 0
Plant response rating, Cocklebur [4, 16]: 0
Plant response rating, Cocklebur [4, 17]: 0
Corn plant response rating (corn (Zea mays); [18]): 0
Plant response rating, Corn (corn (Zea mays); [15]): 0
Plant response rating, Corn (corn (Zea mays); [16]): 30
Plant response rating, Corn (corn (Zea mays); [17]): 95
Bromegrass, Downy plant response rating [5, 18]: 0
Plant response rating, Bromegrass, Downy [5, 15]: 0
Plant response rating, Bromegrass, Downy [5, 16]: 0
Plant response rating, Bromegrass, Downy [5, 17]: 0
Kochia plant response rating (kochia (Kochia scoparia); 8 g ai/ha): 0
Kochia plant response rating (kochia (Kochia scoparia); 16 g ai/ha): 0
Plant response rating, Kochia (kochia (Kochia scoparia); [16]): 0
Plant response rating, Kochia (kochia (Kochia scoparia); [17]): 0
Lambsquarters plant response rating ([6]; 8 g ai/ha): 0
Lambsquarters plant response rating ([6]; 16 g ai/ha): 0
Plant response rating, Lambsquarters [6, 16]: 0
Plant response rating, Lambsquarters [6, 17]: 0
Morningglory plant response rating ([7]; 8 g ai/ha): 0
Morningglory plant response rating ([7]; 16 g ai/ha): 0
Plant response rating, Morningglory [7, 16]: 0
Plant response rating, Morningglory [7, 17]: 0
Soybean plant response rating (soybean (Glycine max); 8 g ai/ha): 0
Soybean plant response rating (soybean (Glycine max); 16 g ai/ha): 0
Plant response rating, Soybean (soybean (Glycine max); [16]): 0
Plant response rating, Soybean (soybean (Glycine max); [17]): 0
Surinam Grass plant response rating ([8]; 8 g ai/ha): 35
Surinam Grass plant response rating ([8]; 16 g ai/ha): 35
Plant response rating, Surinam Grass [8, 16]: 80
Plant response rating, Surinam Grass [8, 17]: 80
Wheat plant response rating ([9]; 8 g ai/ha): 0
Wheat plant response rating ([9]; 16 g ai/ha): 0
Plant response rating, Wheat [9, 16]: 0
Plant response rating, Wheat [9, 17]: 0
Nutsedge, Yellow plant response rating ([10]; 8 g ai/ha): 0
Nutsedge, Yellow plant response rating ([10]; 16 g ai/ha): 0
Plant response rating, Nutsedge, Yellow [10, 16]: 0
Plant response rating, Nutsedge, Yellow [10, 17]: 0

4-[3-(4-chlorophenyl)-5-methyl-1H-pyrazol-3-yl]-5-hydroxy-2-methyl-3(2H)-pyridazinone [Compound 3]
Bermudagrass plant response rating ([1]; 250 g ai/ha, preemergence): 100
Plant response rating, Bermudagrass [1, 19]: 100
Plant response rating, Bermudagrass [1, 20]: 100
Plant response rating, Bermudagrass [1, 21]: 100
Plant response rating, Bermudagrass [1, 22]: 100
Plant response rating, Bermudagrass [1, 11]: 30
Plant response rating, Bermudagrass [1, 12]: 100
Plant response rating, Bermudagrass [1, 13]: 100
Blackgrass plant response rating ([2]; 250 g ai/ha, preemergence): 100
Plant response rating, Blackgrass [2, 19]: 100
Plant response rating, Blackgrass [2, 20]: 100
Plant response rating, Blackgrass [2, 21]: 100
Plant response rating, Blackgrass [2, 22]: 100
Plant response rating, Blackgrass [2, 11]: 80
Plant response rating, Blackgrass [2, 12]: 100
Plant response rating, Blackgrass [2, 13]: 100
Plant response rating, Galium ([3]; 62 g ai/ha, scale 0 to 100): 85
Plant response rating, Galium ([3]; 125 g ai/ha, scale 0 to 100): 85
Plant response rating, Galium ([3]; 250 g ai/ha, scale 0 to 100): 85
Plant response rating, Cocklebur [4, 19]: 0
Plant response rating, Cocklebur [4, 20]: 0
Plant response rating, Cocklebur [4, 21]: 0
Plant response rating, Cocklebur [4, 22]: 0
Plant response rating, Cocklebur [4, 11]: 0
Plant response rating, Cocklebur [4, 12]: 0
Plant response rating, Cocklebur [4, 14]: 0
Plant response rating, Corn (corn (Zea mays); [19]): 100
Plant response rating, Corn (corn (Zea mays); [20]): 100
Plant response rating, Corn (corn (Zea mays); [21]): 100
Plant response rating, Corn (corn (Zea mays); [22]): 100
Plant response rating, Corn (corn (Zea mays); [11]): 95
Plant response rating, Corn (corn (Zea mays); [12]): 95
Plant response rating, Corn (corn (Zea mays); [13]): 95
Plant response rating, Corn (corn (Zea mays); [14]): 98
Plant response rating, Bromegrass, Downy [5, 19]: 5
Plant response rating, Bromegrass, Downy [5, 20]: 5
Plant response rating, Bromegrass, Downy [5, 21]: 5
Plant response rating, Bromegrass, Downy [5, 22]: 5
Plant response rating, Bromegrass, Downy [5, 11]: 50
Plant response rating, Bromegrass, Downy [5, 12]: 60
Plant response rating, Bromegrass, Downy [5, 13]: 95
Plant response rating, Bromegrass, Downy ([5]; Preemergence, 250 g ai/ha, scale 0 to 100 (0 no effect, 100 complete control)): 98
Plant response rating, Kochia (kochia (Kochia scoparia); [19]): 0
Plant response rating, Kochia (kochia (Kochia scoparia); [20]): 0
Plant response rating, Kochia (kochia (Kochia scoparia); [21]): 60
Plant response rating, Kochia (kochia (Kochia scoparia); [22]): 70
Plant response rating, Kochia (kochia (Kochia scoparia); [11]): 0
Plant response rating, Kochia (kochia (Kochia scoparia); [13]): 30
Plant response rating, Kochia (kochia (Kochia scoparia); [14]): 30
Plant response rating, Lambsquarters [6, 19]: 0
Plant response rating, Lambsquarters [6, 20]: 0
Plant response rating, Lambsquarters [6, 21]: 15
Plant response rating, Lambsquarters [6, 22]: 20
Plant response rating, Morningglory [7, 19]: 0
Plant response rating, Morningglory [7, 20]: 0
Plant response rating, Morningglory [7, 21]: 0
Plant response rating, Morningglory [7, 22]: 0
Plant response rating, Morningglory [7, 11]: 0
Plant response rating, Morningglory [7, 12]: 0
Plant response rating, Morningglory [7, 13]: 0
Plant response rating, Morningglory [7, 14]: 0
Plant response rating, Soybean (soybean (Glycine max); [19]): 0
Plant response rating, Soybean (soybean (Glycine max); [20]): 40
Plant response rating, Soybean (soybean (Glycine max); [21]): 40
Plant response rating, Soybean (soybean (Glycine max); [22]): 60
Plant response rating, Soybean (soybean (Glycine max); [11]): 0
Plant response rating, Soybean (soybean (Glycine max); [12]): 0
Plant response rating, Soybean (soybean (Glycine max); [13]): 0
Plant response rating, Soybean (soybean (Glycine max); [14]): 0
Plant response rating, Surinam Grass [8, 19]: 100
Plant response rating, Surinam Grass [8, 20]: 100
Plant response rating, Surinam Grass [8, 21]: 100
Plant response rating, Surinam Grass [8, 22]: 100
Plant response rating, Surinam Grass [8, 11]: 100
Plant response rating, Surinam Grass [8, 12]: 100
Plant response rating, Surinam Grass [8, 13]: 100
Plant response rating, Surinam Grass [8, 14]: 100
Plant response rating, Wheat [9, 19]: 80
Plant response rating, Wheat [9, 20]: 90
Plant response rating, Wheat [9, 21]: 100
Plant response rating, Wheat [9, 22]: 100
Plant response rating, Wheat [9, 11]: 45
Plant response rating, Wheat [9, 12]: 75
Plant response rating, Wheat [9, 13]: 95
Plant response rating, Wheat [9, 14]: 98
Plant response rating, Nutsedge, Yellow [10, 19]: 0
Plant response rating, Nutsedge, Yellow [10, 20]: 0
Plant response rating, Nutsedge, Yellow [10, 21]: 0
Plant response rating, Nutsedge, Yellow [10, 22]: 0
Plant response rating, Nutsedge, Yellow [10, 11]: 0
Plant response rating, Nutsedge, Yellow [10, 12]: 0
Plant response rating, Nutsedge, Yellow [10, 13]: 0
Plant response rating, Nutsedge, Yellow [10, 14]: 0

— patent publication US20100267561A1, “HERBICIDAL PYRIDAZINONE DERIVATIVES” (priority 2007, published 2010)
